The target of this assay is T1, McTPS1 (Magnolia champaca, UniProt A0A1Y0BW36).
T1 construct: gene TPS1; full-length ORF (plastid transit peptide apparently kept), N-terminal 6His tag (pDEST17), E. coli BL21 pLysS, Ni-NTA purified
T1 sequence (A0A1Y0BW36 1-581): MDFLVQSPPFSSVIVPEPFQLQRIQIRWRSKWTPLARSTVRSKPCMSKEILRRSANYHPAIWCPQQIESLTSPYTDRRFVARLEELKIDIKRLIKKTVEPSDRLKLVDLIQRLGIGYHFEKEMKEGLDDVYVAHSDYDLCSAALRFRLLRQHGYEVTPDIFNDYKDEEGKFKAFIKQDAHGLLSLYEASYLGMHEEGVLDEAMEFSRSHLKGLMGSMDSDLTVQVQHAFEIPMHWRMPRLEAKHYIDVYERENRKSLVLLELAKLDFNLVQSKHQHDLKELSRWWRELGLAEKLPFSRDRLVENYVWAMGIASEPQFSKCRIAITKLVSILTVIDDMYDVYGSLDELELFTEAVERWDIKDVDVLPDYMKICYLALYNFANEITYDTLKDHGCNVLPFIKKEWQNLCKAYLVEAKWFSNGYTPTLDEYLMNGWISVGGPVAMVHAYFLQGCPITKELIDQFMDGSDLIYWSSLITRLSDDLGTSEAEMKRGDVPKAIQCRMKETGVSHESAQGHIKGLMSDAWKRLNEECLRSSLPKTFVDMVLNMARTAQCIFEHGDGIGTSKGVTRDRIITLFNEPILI
The experiment in a line: in vitro TPS assay, chiral phase GC-MS. In kind it is biochemical. As to conditions: 25 mM HEPES pH 7.4, 100 mM KCl, 7.5 mM MgCl2, 5 mM DTT (1X of the 2X buffer), 30 °C, 2 h.

Take `C=C[C@](C)(O)CCC=C(C)C` [(R)-linalool]: where the note is “from GPP”, the “in vitro TPS assay, chiral phase GC-MS” value is on record as “our in vitro assays identified McTPS1 as the (R)-linalool synthase”.

For the compound `CC(C)=CCC/C(C)=C/COP(=O)(O)OP(=O)(O)O` [geranyl diphosphate], the “in vitro TPS assay, chiral phase GC-MS” value is given as “McTPS1 reacted with GPP to produce (R)-linalool, a monoterpene alcohol”.

Values taken from paper PMC5471912, “Integrated metabolome and transcriptome analysis of Magnolia champaca identifies biosynthetic pathways for floral volatile organic compounds” (BMC Genomics, 2017).
